Columns and labels:
lungs of balb/c mice = tested on: lungs of balb/c mice
Procedure: This assay was used to assess the ability of the cationic amphiphiles of the invention to transfect cells in vivo from live specimens. In the assay, the lungs of balb/c mice were instilled intra-nasally (the procedure can also be performed trans-tracheally) with 100 μl of cationic amphiphile:DNA complex, which was allowed to form during a 15-minute period prior to administration according to the following procedure. The amphiphile (premixed with co-lipid, see below) was hydrated in water for 10 minutes, a period sufficient to yield a suspension at twice the final concentration required. This was vortexed for two minutes and aliquoted to provide 55 microliter quantities for each mouse to be instilled. Similarly, DNA encoding the reporter (CAT) gene was diluted with water to a concentration twice the required final concentration, and then aliquoted at 55 microliters for each mouse to be instilled. The lipid was gently combined with the DNA (in a polystyrene tube), and the complex allowed to form for 15 minutes before the mice were instilled therewith.
The plasmid used (pCMVHI-CAT, see Example 4) provides an encoding DNA for chloramphenicol transferase enzyme. Specifics on the amphiphile:DNA complexes are provided below.
Two days following transfection, mice were sacrificed, and the lungs and trachea removed, weighed, and homogenized in a buffer solution (250 mM Tris, pH 7.8, 5 mM EDTA). The homogenate was darifed by centrifugation, and the deacetylases therein were inactivated by heat treatment at 70° C. for 10 minutes. Lysate was incubated overnight with acetyl coenzyme A and C^14-chloramphenicol. CAT enzyme activity was then visualized by thin layer chromatography (“TLC”) following an ethyl acetate extraction.
The presence of the enzyme CAT will cause an acetyl group to be transferred from acetyl coenzyme A to C^14-chloramphenicol. The acetylated/radiolabeled chloramphenicol migrates faster on a TLC plate and thus its presence can be detected.
With respect to the comparison provided by FIG. 10, the following conditions are of note. The transfection solution for spermidine cholesterol carbamate contained 6 mM DNA measured as concentration of nucleotide, and 1.5 mM of cationic amphiphile. […] For transfection with DC-chol, the molar ratio of DC-chol to DOPE was 3:2, and the concentrations of cationic amphiphile and of DNA (as nucleotide) were 1.3 mM and 0.9 mM, respectively. For transfection with DMRIE, the molar ratio of DMRIE to DOPE was 1:1 and the concentrations of cationic amphiphile and of DNA were 1.7 mM and 12 mM, respectively.

lung and heart = test: Intravenous delivery of pCF-1CAT complex, CAT expression in organs; type: in vivo, BALB/c mouse; conditions: for organ distribution of CAT expression: DNA 0.9 mM, i.v. tail vein, 48 h
Procedure: The reporter plasmid pCF-1CAT (Example 4) was used and was purified to minimize endotoxin (<1 EU/mg pDNA), and also chromosomal DNA contamination (<2%). Amphiphile No. 53 (1:1 with DOPE)/DNA complex was prepared according to the procedures of Example 3. The amphiphile was provided as the free base, the plasmid was prepared as a sodium salt in water, and the DOPE was provided in zwitterionic form.
The animal model was the BALB/c mouse. Females 6-8 weeks old weighing 16-18 g were injected intravenously using the tail vein, using 5 animals per group. The volume of lipid:pDNA complex used was 100 μl in all experiments. Unless noted otherwise, mice were sacrificed 48 h following administration of the complex. Organs were frozen immediately on dry ice to store for subsequent analysis.
Expression of chloramphenicol acetyl transferase (CAT) was quantitated using a radiochemical assay for CAT enzymatic activity. Organs Were weighed and homogenized on ice in a lysis buffer containing protease inhibitors. The lysate was freeze-thawed 3×, centrifuged, and heated to 65° C. to inactivate deacetylases before adding it to a reaction mixture containing ^14C-chloraamphenicol. After an incubation at 37° C., the mixture was extracted with ethyl acetate, concentrated, spotted onto TLC plates and eluted with CHCl3/MeOH. Spots corresponding to the acylated reaction products were quantitated (Betagen) and converted to ng CAT activity using authentic CAT standards.

[1] = Excipient selection against amphiphile/DNA aggregate formation; type: physicochemical; conditions: particularly as DNA concentration is increased
Excerpt: Additionally, the therapeutic compositions of the invention can in general be formulated with excipients (such as the carbohydrates lactose, trehalose, sucrose, mannitol, maltose or galactose) and may also be lyophilized (and then rehydrated) in the presence of such excipients prior to use. Conditions of optimized formulation for each amphiphile of the invention are capable of determination by those skilled in the pharmaceutical art. […] Addition of such excipients maintains the consistency of lyophilized pharmaceutical compositions during storage, and prevent difficulties such as aggregation, or insolubity, that may likely occur upon rehydration from the lyophilized state.

[2] = tested on: Immortalized human cystic fibrosis airway cells (CFT-1); test: SPQ assay of cAMP-stimulated Cl− channel activity after pCMV-CFTR transfection; type: cell-based
Procedure: Immortalized human cystic fibrosis airway cells (CFT-1, as above) were used.
In preparation for the assay, the cells were grown on glass coverslips until approximately 60% confluent The cells were hen transfected with a complex of spermidine cholesterol carbamate:DOPE (1:1) and a plasmid(pCMV-CFTR) containing a cDNA that encodes wild type human CFTR pCMV-CFTR plasmid is a construct containing the encoding sequence for CFTR and the following regulatory elements, a CMV promoter and enhancer, and an SV40 polyadenylation signal. Additional constructs suitable for the practice of this example include pMT-CFTR, Cheng et al., Cell, 63,827-834 (1990). The complex used was 10.5 μmolar of spermidine cholesterol carbamate (also of DOPE) and 30 μmolar of pCMV-CFTR based on nucleotide.
48 hours after amphiphile-mediated transfection, cells were tested for cAMP-stimulated Cl^− channel activity using the 6-methoxy-N-(3-sulfopropyl)quinolinium (“SPQ”) assay. […] In the assay, cAMP-dependent Cl^− channel activity was assessed using “SPQ” (from Molecular Probes, Eugene, Oreg.), a halide-sensitive fluorophore. Increases in halide permeability results in a more rapid increase in SPQ fluorescence, and the rate of change (rather than the absolute change in fluorescence) is the important variable in assessing Cl^− permeability. […]

[3] = tested on: Primary nasal polyp cells from a cystic fibrosis patient (Δ F508); test: cAMP-stimulated transepithelial chloride secretion in modified Ussing chamber after pCMV-CFTR transfection; type: cell-based, human; conditions: 1:1 with DOPE; 42 μmolar amphiphile, 60 μmolar pCMV-CFTR; forskolin and IBMX
Procedure: Primary (non-immortalized) nasal polyp cells from an adult cystic fibrosis patient (homozygous for the Δ F508mutation) were grown on collagen-coated permeable filter supports (Millicells) to form a polarized and confluent epithelial monolayer. Once the monolayer was electrically tight (about 5 to 7 days post seeding, and as indicated by the development of resistance across the cell sheet), the apical surface can be exposed to formulations of cationic amphiphile: DNA complex.
In this case, the amphiphile (spermidine cholesterol carbamate) was provided as a 1:1 (by mole) mixture with DOPE, and this mixture was then complexed with pCMV-CFTR plasmid vector (a construct encoding wild type human cystic fibrosis transmembrane conductance regulator protein, see above). Concentrations in the final mixture were 42 μmolar of spermidine cholesterol carbamate (and also of DOPE) and 60 μmolar (based on morality in nucleotides) of the plasmid expression vector.
Expression of CFTR was determined by measuring cAMP-stimulated transepithelial chloride secretion in a modified Ussing chamber, Zabner et al., Nature Genetics, 6, 75-83 […]. The mucosal side of the epithelium was bathed in Ringer's bicarbonate solution bubbled with 95% O2 and 5% CO2. […] Transepithelial voltage was clamped to 0 m V and short circuit current was recorded. […]

[4] = tested on: CFT-1 cell line (human cystic fibrosis bronchial epithelial cells); test: Cell transfection assay (β-galactosidase expression); type: cell-based; conditions: 1:1 mixture with DOPE, pCMVβ
Procedure: Following combination of the solutions, a thin film was produced by removing chloroform from the mixture by evaporation under reduced pressure (20 mm Hg). The film was further dried under vacuum (1 mm Hg) for 24 hours.
The resulting suspension was then diluted with 4 ml of water to yield a solution that is 670 μM in cationic amphiphile and 670 μM in neutral colipid.
For preparation of the transfecting solution, DNA encoding for β-galactosidase (pCMVβ, ClonTech., Palo Alto, Calif.) was dissolved in OptiMEM culture medium (Gibco/BRL No. 31885-013).
The resulting 335 μM solutions were then serially diluted 7 times to generate 8 separate amphiphile-containing solutions having concentrations ranging from 335 μM to 2.63 μM, with each resultant solution having a volume of 165 μl. Thus, 64 solutions were prepared in all, there being 8 wells each of 8 different concentrations of amphiphile/DOPE.
Independently, DNA solutions (165μl, 960 μM) were pipetted into 8 wells containing OptiMEM (165 μl), and the resulting 480 μM solutions were then serially diluted 7 times to generate 8 separate 165 μl solutions from each well, with the concentrations of DNA in the wells ranging from 480 μM to 3.75 μM. […]

lungs of mice = test: CAT assay, parts B and C: intra-nasal, pCF1/CAT or pCF2/CAT vectors; conditions: mouse
Excerpt: That the novel amphiphiles of the invention are an important contribution to the art is immediately seen by comparing their performance—as in vivo transfection enhancers—to that of closely related cationic amphiphiles that lack the novel T-shape. It has been determined that spermidine cholesterol carbamate provides a much greater level of enhancement than N^1-spermidine cholesteryl carbamate which contains the same number of carbon and nitrogen atoms in its cationic alkylamine component but which is linear and not “T-shaped”. Following generally the procedures of Example 3, part B, and using respectively 6 mM (as nucleotide), 1.5 mM, and 1.5 mM concentrations of DNA, amphiphile and of co-lipid, the transfection enhancement provided by spermidine cholesterol carbamate (amphiphile No.53), in relation to N^1-spermidine cholesteryl carbamate, was determined to be about 30 fold.
Also following the procedures of Example 3, part B, and using respectively 4 mM (as nucleotide), 1 mM, and 2 mM concentrations of DNA, amphiphile and co-lipid, the transfection enhancement provided by spermine cholesterol carbamate (amphiphile No. 67)—in relation to N^1-thermospermine cholesteryl carbamate and N^1-spermine cholesteryl carbamate to which spermine cholesterol carbamate is similarly related—is at least about 30 fold.

[5] = Transacylation reaction of amphiphile with co-lipid DOPE on co-storage; type: physicochemical
Excerpt: Although heretofore unrecognized in the art, it has been determined also that certain co-lipids may react chemically with certain types of cationic amphiphiles under conditions of co-storage, there resulting new molecular species. Generation of such new species is believed to occur via mechanisms such as transacylation. In this regard, see FIG. 4 which depicts a transacylation reaction involving spermine cholesterol carbamate (No.67) and DOPE, there resulting lyso PE species and multiple forms of particular acyl-cationic amphiphile (designated No. 80).
It is expected that these phenomena would also apply to lyophilized amphiphile/DOPE preparations.
Accordingly, it is highly preferred to maintain such amphiphile/DOPE preparations at very cold temperatures, such as −70 degrees C.

[6] = Transgene expression by protonation state of the amphiphile in transfecting composition with DOPE; conditions: amphiphile as free base; with DOPE zwitterion; plasmid DNA sodium salt in water
Excerpt: An additional aspect of the invention concerns the protonation state of the cationic amphiphiles of the invention prior to their contacting plasmid DNA in order to form a therapeutic composition. It is within the practice of the invention to utilize fully protonated, partially protonated, or free base forms of the amphiphiles in order to form such therapeutic compositions. With respect to amphiphile No. 67 (spermine cholesterol carbamate), it has been observed that when providing this amphiphile for a transfecting composition with DOPE (itself provided as a zwitterion), transgene expression was best for the free base, but decreased if the amphiphile was prepared as an acetate salt. […] Under the circumstances described, the plasmid DNA provided for contacting with the amphiphile was prepared (without buffer) as a sodium salt in water.

[7] = 1.0-1.5 mM amphiphile, cholesterol 1:1, DNA 4.0-6.0 mM, intra-nasal

## 1,2-dimyristyloxypropyl-3-dimethyl-hydroxyethyl ammonium bromide [DMRIE, reference compound]
Lungs of balb/c mice; 1:1 molar with DOPE, 1.7 mM DMRIE, 1.7 mM DOPE, 1.2 mM plasmid DNA as nucleotide
  CAT activity in lung: 1 to 2 ng activity per 100 mg lung tissue

## CC(C)CCCC(C)C1CCC2C3CC=C4CC(OC(=O)N(CCCN)CCCCN)CCC4(C)C3CCC12C (stereo not drawn) [amphiphile No. 53, N^4-spermidine cholesteryl carbamate]
Lung and heart; amphiphile/DNA molar ratio less than about 0.5
  organ distribution of CAT expression: strongly weighted toward the lung
Lung and heart; amphiphile/DNA ratio of 1.25
  organ distribution of CAT expression: substantial expression was found in the heart
Lung and heart; constant DNA concentration 0.9 mM, i.v.
  targeting to the lung over a range of amphiphile/DNA ratios: remained relatively constant
[1]
  excipient preferred to prevent formation of amphiphile/DNA aggregates: sucrose is preferred over mannitol
[2]
  transferring CFTR-encoding plasmid into immortalized CF airway cells: effective
[3]
  cAMP-stimulated current: 0.5 to 2.5 μampere/cm^2
[4]
  transfection efficiency improved by a factor, relative to DMRIE:DOPE (1:1): about 5
Lungs of balb/c mice; 1.5 mM amphiphile, 1:1 DOPE, 6 mM DNA (nucleotide), intra-nasal, 2 days
  enhancement of in vivo transfection (ng CAT activity per 100 mg tissue) in relation to DMRIE and DC-Chol: ≥ 20 fold
Lungs of balb/c mice; [7]
  transfection efficiency (ng CAT/100 mg tissue) with cholesterol as co-lipid, compared with DOPE as co-lipid: less effective
  transfection with cholesterol as co-lipid, compared with DC-Chol/DOPE: substantially more effective
Lungs of balb/c mice; about 0.75 mM amphiphile and 3.0 mM plasmid, versus the optimal 1.5 mM/6 mM
  toxicity to the target cells: less toxic
Lungs of mice
  activity of amphiphile (in vivo transfection): highly active
  in vivo transfection in comparison with non T-shaped amphiphiles having equivalent cationic alkylamine structure: superior transfectants

## CC(C)CCCC(C)C1CCC2C3CC=C4CC(OC(=O)N(CCCN)CCCCNCCCN)CCC4(C)C3CCC12C (stereo not drawn) [amphiphile No. 67, N^4-spermine cholesteryl carbamate]
[5]; amphiphile as mono, di, or tri acetate salt
  transacylation with DOPE: slow transacylations
[5]; aqueous solution where bilayer-containing structures such as liposomes can form
  transacylation with DOPE: will permit transacylation
[5]; mixture of amphiphile and DOPE in chloroform solvent
  transacylation with DOPE: does not appear to participate
[6]
  transgene expression: best
Lungs of mice
  activity of amphiphile (in vivo transfection): highly active
  in vivo transfection in comparison with non T-shaped amphiphiles having equivalent cationic alkylamine structure: superior transfectants

## CC(C)CCC[C@@H](C)[C@H]1CC[C@H]2[C@@H]3CC=C4C[C@@H](OC(=O)N(CCCCNCCCN)CCCNCCCN)CC[C@]4(C)[C@H]3CC[C@]12C [amphiphile No. 75, N^1,N^8-Bis(3-aminopropyl)-N^4-spermidine cholesteryl carbamate]
Lungs of mice
  activity of amphiphile (in vivo transfection): highly active

From patent publication US6383814B1, “Cationic amphiphiles for intracellular delivery of therapeutic molecules” (Genzyme Corporation, priority 1994, dated 2002)
